From ChEMBL document CHEMBL1201862, “PubChem BioAssay data set” (2004)
Active and inactive are the calls of the source.

Columns and labels:
[1] = target: T1, Protein skinhead-1 (Caenorhabditis elegans, UniProt P34707); type: functional
T1 sequence (P34707 whole entry): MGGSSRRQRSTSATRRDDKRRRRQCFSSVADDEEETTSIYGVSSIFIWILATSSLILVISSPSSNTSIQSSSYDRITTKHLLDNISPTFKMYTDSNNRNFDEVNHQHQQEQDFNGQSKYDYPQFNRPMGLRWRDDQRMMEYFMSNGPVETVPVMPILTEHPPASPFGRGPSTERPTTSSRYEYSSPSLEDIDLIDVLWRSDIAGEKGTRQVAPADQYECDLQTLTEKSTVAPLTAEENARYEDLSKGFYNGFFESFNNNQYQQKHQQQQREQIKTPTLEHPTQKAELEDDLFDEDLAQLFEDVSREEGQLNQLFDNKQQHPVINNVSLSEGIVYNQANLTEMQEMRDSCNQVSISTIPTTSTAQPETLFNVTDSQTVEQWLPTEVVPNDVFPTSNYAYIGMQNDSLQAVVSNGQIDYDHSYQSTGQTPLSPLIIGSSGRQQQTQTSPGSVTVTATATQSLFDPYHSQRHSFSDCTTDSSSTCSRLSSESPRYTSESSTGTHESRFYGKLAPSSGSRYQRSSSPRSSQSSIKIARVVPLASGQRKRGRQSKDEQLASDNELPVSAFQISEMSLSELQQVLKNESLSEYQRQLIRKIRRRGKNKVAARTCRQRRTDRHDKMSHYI

[2] = inhibitors of HIV Env-driven cell fusion, dose response, cherry-pick (AID 652057); type: functional, cell-based
[3] = CEM21 lymphoblast cell cytotoxicity, dose response, cytotoxicity control for viral fusion inhibitor project, CellTiter-Glo luminescence, cherry-picked (AID 652042); type: functional, cell-based;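 also: potency for signal decrease meaning cytotoxicity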
[4] = ZM109 Env clade C HIV-1 fusion inhibitors, dose response, HeLa effector, CEM target cells, luciferase, cherry-pick (AID 652058); type: functional, cell-based
[5] = off-target signal loss in HeLa-CEM21 co-culture – HeLa F-luc CTL cells, cherry-picked, counter-screen for HIV-1 Env fusion inhibitor project, dose response (AID 652040); type: functional, cell-based;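 also: potency for signal decrease marking cytotoxic or nonspecific inhibition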
[6] = inhibitors of clade B AD8 Env fusion, dose response, cell-based, cherry-pick (AID 652062); type: functional;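 also: luciferase signal from cell-cell fusion driven by HIV-1 clade B AD8 Env; potency is for inhibitors of fusion seen as a drop in luminescence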
[7] = target: T2, Sentrin-specific protease 8 (Homo sapiens, UniProt Q96LD8); type: functional
T2 sequence (Q96LD8 whole entry): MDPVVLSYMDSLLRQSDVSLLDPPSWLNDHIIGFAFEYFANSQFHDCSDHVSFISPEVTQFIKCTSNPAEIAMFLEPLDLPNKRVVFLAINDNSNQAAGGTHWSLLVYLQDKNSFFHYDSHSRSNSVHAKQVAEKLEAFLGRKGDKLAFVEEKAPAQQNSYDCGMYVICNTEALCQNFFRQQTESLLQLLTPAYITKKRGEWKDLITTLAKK

[8] = target: T2, Sentrin-specific protease 8; type: functional; remark: listed apart in the source
[9] = target: T3, Fatty acid synthase (Homo sapiens, UniProt P49327); experiment: FAS thioesterase domain inhibitors, dose response, biochemical, endpoint fluorescence intensity, uHTS hits (AID 624327); type: functional;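 also: fluorescence from hydrolysis of an O-methyl fluorescein acyl ester substrate by the enzyme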
[10] = target: T3, Fatty acid synthase; experiment: FAS thioesterase domain inhibitors, dose response, biochemical, kinetic fluorescence intensity (AID 624326); type: functional;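 also: rate of fluorescence rise from hydrolysis of a fluorogenic O-methyl fluorescein ester substrate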
[11] = target: T4, Small ubiquitin-related modifier 1 (Homo sapiens, UniProt P63165); experiment: inhibitors of SUMO1 peptide binding, dose response, biochemical, fluorescence polarization, uHTS hits (AID 624382); type: functional; conditions: read-out: IC50_Mean
[12] = target: T4, Small ubiquitin-related modifier 1; experiment: inhibitors of SUMO1 partner interactions, dose response, biochemical, FRET (AID 624383); type: functional; conditions: read-out: IC50_Mean
[13] = target: Cytochrome P450 3A4 (Homo sapiens, UniProt P08684);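 also: CYP3A4 tested as one member of a cytochrome P450 panel screen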
[14] = miR-122 activators in hepatoma reporter cells, dose response, cell-based, Huh7 psiCHECK-miR122, Renilla luciferase, cherry-picked (AID 651956); type: functional;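 also: huh7 hepatoma cells stably carrying a psiCHECK-2 miR-122 sensor plasmid; renilla luciferase signal reporting endogenous miR-122 activity after 48 h compound exposure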
[15] = system: Escherichia coli; experiment: microbe, parasite or virus in culture
[16] = system: Escherichia coli; experiment: microbe, parasite or virus in culture; remark: listed apart in the source
[17] = HEp-2 cell cytotoxicity, dose response, cytotoxicity control for RSV inhibitor project, HTS (AID 2410); type: functional; conditions: human respiratory syncytial virus
[18] = cells
[19] = target: T5, Tyrosine-protein phosphatase non-receptor type 11 (Homo sapiens, UniProt Q06124); experiment: SHP2 phosphatase inhibition, dose response, selectivity assay for STEP inhibitor project, biochemical (AID 602367); type: functional; conditions: read-out: IC50_Mean
T5 sequence (Q06124 whole entry): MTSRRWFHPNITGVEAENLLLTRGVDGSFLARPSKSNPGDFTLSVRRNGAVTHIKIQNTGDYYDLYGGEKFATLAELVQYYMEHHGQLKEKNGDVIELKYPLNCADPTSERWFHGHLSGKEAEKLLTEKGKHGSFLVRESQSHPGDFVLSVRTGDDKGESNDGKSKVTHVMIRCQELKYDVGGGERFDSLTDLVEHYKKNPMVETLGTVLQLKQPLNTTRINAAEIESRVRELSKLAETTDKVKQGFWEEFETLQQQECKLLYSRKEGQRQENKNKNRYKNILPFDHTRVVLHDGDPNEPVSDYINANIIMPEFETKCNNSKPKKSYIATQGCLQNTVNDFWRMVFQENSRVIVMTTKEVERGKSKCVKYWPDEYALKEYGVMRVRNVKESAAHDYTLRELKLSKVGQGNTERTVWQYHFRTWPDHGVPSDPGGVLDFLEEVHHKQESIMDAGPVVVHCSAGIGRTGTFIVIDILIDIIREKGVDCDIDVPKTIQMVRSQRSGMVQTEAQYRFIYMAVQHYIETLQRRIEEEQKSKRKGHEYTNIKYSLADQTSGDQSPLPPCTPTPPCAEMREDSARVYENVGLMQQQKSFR

[20] = target: T6, Tyrosine-protein phosphatase non-receptor type 5 (Homo sapiens, UniProt P54829); experiment: STEP phosphatase inhibitors, confirmation, biochemical, fluorescence intensity, uHTS hits (AID 602372); type: functional; conditions: read-out: IC50_Mean
T6 sequence (P54829 whole entry): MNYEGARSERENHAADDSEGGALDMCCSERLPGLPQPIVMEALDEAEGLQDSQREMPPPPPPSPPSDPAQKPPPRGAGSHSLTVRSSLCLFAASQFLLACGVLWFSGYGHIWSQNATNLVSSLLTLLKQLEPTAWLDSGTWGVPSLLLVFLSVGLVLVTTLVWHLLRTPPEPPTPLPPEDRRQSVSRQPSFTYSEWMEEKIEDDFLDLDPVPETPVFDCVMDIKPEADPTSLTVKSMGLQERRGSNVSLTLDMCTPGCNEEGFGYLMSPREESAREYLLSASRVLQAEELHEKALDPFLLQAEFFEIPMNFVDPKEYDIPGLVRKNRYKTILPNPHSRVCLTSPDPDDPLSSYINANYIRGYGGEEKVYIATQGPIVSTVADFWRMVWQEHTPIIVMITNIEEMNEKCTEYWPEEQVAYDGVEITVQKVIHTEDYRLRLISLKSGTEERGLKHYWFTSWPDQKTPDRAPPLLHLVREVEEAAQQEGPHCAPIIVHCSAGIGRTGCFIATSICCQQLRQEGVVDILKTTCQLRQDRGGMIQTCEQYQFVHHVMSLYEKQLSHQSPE

[21] = target: Dual specificity protein phosphatase 3 (Homo sapiens, UniProt P51452); experiment: VHR phosphatase inhibition, dose response, selectivity assay for STEP inhibitor project, biochemical (AID 602374); type: functional; conditions: read-out: IC50_Mean
Dual specificity protein phosphatase 3, sequence (P51452 whole entry): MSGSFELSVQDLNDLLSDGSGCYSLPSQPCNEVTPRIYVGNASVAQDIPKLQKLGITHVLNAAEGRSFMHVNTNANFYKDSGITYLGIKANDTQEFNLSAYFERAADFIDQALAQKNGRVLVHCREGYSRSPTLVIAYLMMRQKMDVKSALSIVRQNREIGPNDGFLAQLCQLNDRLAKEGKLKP

T3 sequence (P49327 whole entry, the tested form may be a part): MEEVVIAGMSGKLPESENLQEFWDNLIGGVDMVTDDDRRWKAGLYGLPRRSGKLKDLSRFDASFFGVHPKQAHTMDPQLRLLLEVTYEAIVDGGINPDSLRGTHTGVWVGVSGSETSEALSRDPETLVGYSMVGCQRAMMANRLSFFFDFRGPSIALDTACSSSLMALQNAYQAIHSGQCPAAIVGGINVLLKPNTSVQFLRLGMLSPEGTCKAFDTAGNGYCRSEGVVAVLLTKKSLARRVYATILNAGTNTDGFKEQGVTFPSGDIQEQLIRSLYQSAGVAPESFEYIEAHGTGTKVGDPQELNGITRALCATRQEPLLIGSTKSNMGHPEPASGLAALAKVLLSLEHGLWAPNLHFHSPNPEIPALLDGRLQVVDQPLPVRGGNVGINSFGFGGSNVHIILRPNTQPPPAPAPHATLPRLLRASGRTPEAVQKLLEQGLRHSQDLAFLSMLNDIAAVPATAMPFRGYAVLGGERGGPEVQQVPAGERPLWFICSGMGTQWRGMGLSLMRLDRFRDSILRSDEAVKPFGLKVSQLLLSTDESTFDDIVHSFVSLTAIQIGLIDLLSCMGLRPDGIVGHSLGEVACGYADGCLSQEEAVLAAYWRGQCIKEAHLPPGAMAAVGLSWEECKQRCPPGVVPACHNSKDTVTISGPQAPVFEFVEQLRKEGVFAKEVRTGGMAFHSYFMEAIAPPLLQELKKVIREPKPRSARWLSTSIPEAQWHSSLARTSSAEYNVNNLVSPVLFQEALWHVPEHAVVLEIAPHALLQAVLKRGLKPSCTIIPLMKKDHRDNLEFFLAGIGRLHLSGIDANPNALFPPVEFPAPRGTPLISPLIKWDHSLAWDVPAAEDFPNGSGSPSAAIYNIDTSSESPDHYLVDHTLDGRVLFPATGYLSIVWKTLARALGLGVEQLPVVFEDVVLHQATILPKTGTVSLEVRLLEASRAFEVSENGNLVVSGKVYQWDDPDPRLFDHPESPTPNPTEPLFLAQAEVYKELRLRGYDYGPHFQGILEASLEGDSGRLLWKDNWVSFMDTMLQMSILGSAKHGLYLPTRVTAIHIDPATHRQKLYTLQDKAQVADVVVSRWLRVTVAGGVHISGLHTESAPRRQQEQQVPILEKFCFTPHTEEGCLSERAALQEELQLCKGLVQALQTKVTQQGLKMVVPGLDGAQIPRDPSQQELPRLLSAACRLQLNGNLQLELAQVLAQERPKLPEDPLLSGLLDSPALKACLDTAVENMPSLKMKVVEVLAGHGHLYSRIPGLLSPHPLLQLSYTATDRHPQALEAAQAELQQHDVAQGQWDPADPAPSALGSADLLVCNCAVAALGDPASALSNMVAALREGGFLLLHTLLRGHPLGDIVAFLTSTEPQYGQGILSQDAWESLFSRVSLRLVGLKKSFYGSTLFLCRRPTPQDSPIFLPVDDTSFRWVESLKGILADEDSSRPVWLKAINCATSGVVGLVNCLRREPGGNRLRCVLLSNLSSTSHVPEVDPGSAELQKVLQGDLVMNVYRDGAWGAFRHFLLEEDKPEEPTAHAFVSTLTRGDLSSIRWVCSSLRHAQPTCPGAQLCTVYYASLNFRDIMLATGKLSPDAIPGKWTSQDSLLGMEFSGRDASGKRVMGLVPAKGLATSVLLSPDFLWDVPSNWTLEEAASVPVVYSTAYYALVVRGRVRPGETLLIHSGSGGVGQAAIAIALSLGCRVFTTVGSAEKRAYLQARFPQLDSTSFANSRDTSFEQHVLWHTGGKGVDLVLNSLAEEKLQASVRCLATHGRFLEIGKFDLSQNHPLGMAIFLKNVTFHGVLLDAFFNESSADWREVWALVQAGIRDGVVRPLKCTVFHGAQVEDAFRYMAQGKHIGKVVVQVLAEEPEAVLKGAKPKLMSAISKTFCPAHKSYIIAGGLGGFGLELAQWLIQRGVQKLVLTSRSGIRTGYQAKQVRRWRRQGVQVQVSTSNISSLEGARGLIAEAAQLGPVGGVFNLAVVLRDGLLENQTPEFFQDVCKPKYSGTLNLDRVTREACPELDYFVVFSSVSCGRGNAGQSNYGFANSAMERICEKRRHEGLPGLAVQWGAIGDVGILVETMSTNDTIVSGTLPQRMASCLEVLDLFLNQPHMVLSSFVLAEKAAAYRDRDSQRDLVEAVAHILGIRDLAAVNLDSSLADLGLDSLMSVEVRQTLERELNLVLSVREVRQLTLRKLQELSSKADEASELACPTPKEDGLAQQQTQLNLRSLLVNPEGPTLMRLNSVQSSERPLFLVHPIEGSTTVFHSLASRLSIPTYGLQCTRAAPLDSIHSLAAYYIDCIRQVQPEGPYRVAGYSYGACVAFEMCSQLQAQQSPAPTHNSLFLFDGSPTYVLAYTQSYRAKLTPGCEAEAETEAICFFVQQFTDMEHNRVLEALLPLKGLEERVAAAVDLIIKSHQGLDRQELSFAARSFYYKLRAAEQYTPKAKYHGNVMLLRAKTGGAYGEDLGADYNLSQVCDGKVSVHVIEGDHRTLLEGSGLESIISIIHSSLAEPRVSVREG
T4 sequence (P63165 whole entry): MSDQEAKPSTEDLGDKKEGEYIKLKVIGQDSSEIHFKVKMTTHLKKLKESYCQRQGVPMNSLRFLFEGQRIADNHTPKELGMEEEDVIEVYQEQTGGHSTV
Cytochrome P450 3A4, sequence (P08684 whole entry): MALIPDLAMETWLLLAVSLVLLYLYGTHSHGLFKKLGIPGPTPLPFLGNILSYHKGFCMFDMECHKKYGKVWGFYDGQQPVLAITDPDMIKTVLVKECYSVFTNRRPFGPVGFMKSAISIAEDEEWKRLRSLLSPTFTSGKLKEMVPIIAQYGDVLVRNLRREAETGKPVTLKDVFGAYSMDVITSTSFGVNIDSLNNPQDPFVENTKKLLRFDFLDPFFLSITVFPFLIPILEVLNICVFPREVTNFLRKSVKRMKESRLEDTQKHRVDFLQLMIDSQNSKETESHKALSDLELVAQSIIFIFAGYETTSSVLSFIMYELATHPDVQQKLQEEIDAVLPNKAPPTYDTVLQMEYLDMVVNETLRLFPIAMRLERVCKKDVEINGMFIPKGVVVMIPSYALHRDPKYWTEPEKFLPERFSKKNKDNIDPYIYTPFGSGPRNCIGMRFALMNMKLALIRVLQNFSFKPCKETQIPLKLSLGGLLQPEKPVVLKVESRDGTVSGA

## C[C@@H]1C=C[C@](Cc2ccccc2)(C(=O)NCC2CC2)N1C(=O)c1ccccc1
[1]
  IC50: > 100 µM (inactive)

## CCCCCNC(=O)C(c1ccncc1)n1c(=O)c(-c2cc3ccccc3[nH]2)nc2ccccc21 (stereo unspecified)
[2]
  AC50: 2.62 µM (active)
[3]
  AC50: 31.9 µM (active)
[4]
  AC50: 4.68 µM (active)
[5]
  AC50: 4 µM (active)
[6]
  AC50: 7.8 µM (active)

## O=C1Cc2ccccc2C(=O)N1OCc1ccc(Cl)cc1
[7]
  IC50: 11.8 µM (active)
[8]
  IC50: 11 µM (active)

## COCCCNC(=O)CC1C[C@H](C(=O)N2CCOCC2)[C@@]2(CCC3CCCC3)c3[nH]c4ccc(OC)cc4c3CCN2C1=O (stereo partly specified)
[9]
  IC50: 11.5 µM (active)
[10]
  IC50: 7.56 µM (active)

## CC(=O)c1c(C)[nH]c(C(=O)OCC(=O)c2ccc3c(c2)NC(=O)CO3)c1C
[11]
  IC50: > 66.6 µM (inactive)
[12]
  IC50: 6.39 µM (active)

## CSc1ccc(NC(=O)NCCCN2CCN(c3ccccc3F)CC2)cc1
[1]
  IC50: > 100 µM (inactive)
[13]
  AC50: inconclusive

## C/C=C/c1ccc([C@@H]2[C@@H](CO)N(C(C)=O)[C@@H]2CN(C)C(=O)c2ccccn2)cc1
[14]
  AC50: 39.6 µM (active)

## Cc1n[nH]c(-c2cccnc2)c1N=NN(C)C
[15]
  AC50: 0.628 µM (active)
[16]
  AC50: 2.15 µM (active)

## CCn1c2ccc(C)cc2c2nnc(NN)nc21
[17]
  CC50: 32.3 µM (active)
[7]
  IC50: > 100 µM (inactive)
[8]
  IC50: 8.84 µM (active)
[18]
  IC50: 17.4 µM (active)

## CC(=O)N1CCC(N(CCN2CCOCC2)C(=S)Nc2ccc(C)cc2)CC1
[19]
  IC50: 17.9 µM (active)
[20]
  IC50: > 80 µM (inactive)
[21]
  IC50: 3.44 µM (active)

## O=C(COc1cc([N+](=O)[O-])cc2cccnc12)NCCC1=CCCCC1
[9]
  IC50: 1.1 µM (active)
[10]
  IC50: 0.778 µM (active)
